Patent US12043601B2, “N-substituted-1H-1,2,4-triazole-3-carboxamides, analogues thereof, and methods of treatment using same” (THE REGENTS OF THE UNIVERSITY OF COLORADO, priority 2018, dated 2024)
In brackets after ≈: the same amount, converted by molar mass.

Assays:
Compound solubility = format: physicochemical; conditions: for Compound Solubility, 1 μM: solvent at 1 μM; for Compound Solubility, 10 μM: solvent at 10 μM; for Compound Solubility, 100 μM: solvent at 100 μM; for Compound Solubility, 1 mM: solvent at 1 mM; for Compound Solubility, 10 mM: solvent at 10 mM; for Compound Solubility, 16 mg/ml: solvent at 16 mg/ml
DksA [1] = target: T1, DksA (Salmonella typhimurium, UniProt P0A1G5); test: DksA-dependent livJ in vitro transcription; format: biochemical; conditions: livJ promoter; for IVT: concentration showing activity
Protocol: (§1) To measure the potency of a compound in inhibition of DksA biological function, rpsMtranscripts in vitro was determined by non-radioactive in vitro transcription reactions with qPCR analysis with divergent compounds. Briefly, 5 nM pTIM-rpsMplasmid was mixed with […] of compounds in 10 μl reaction buffer (40 mM HEPES [pH 7.4], 2 mM MgCl2, 60 mM potassium glutamate, 0.05% NP-40, 200 μM ATP, 200 μM GTP, 200 μM CTP, 200 μM UTP, and 5 nM E. coli RNA polymerase holoenzyme (NEB, Ipswich, MA) with 5 μM DksA. The in vitro transcription was carried out at 37° C. for 10 min, and then terminated at 70° C. for 10 min. To remove template DNA after treated with DNaseI, DNA-free DNA Removal kit (ThermoFisher) was used according to manufacturer's direction. The resulting materials were used as templates to generate cDNA with 100 U MMLV reverse transcriptase (Promega), 0.45 μM gene specific primer, and 20 U RNase inhibitor (Promega). The amount of cDNA synthesized for 1 h at 42° C. was quantified by real-time PCR (qRT-PCR). The copy number of specific transcripts was calculated to the standard curve generated with known gene copy concentrations. The IC50 is the concentration at which the curve passes through the 50% inhibition level. Standard deviation was calculated from 3 independent experiments.
(§2) The compounds were initially tested at 0.1 μM and 1 μM using as a target the promoter of the livJ gene that encodes a transporter of branch-chain amino acids (Table 4).

Salmonella strain 14028s = test: Minimum inhibitory concentration in EG minimal media; format: cell-based, Salmonella Typhimurium; conditions: 18 h; for Growth in EG at concentration tested 1 μg/ml / Growth in EG at concentration tested 2 μg/ml / Growth in EG at concentration tested 4 μg/ml / Growth in EG at concentration tested 8 μg/ml / Growth in EG at concentration tested 16 μg/ml / Growth in EG at concentration tested 32 μg/ml: EG minimal media, 37° C.; for MIC: Salmonella, 14028S
Protocol: DksA controls transcription of metabolic and virulence genes, allowing bacteria to both grow in minimum media and cause disease. Inhibition of bacterial growth in EG minimum media was used as an easy and reliable proxy of the DksA-dependent regulation of metabolism.
In a non-limiting example, wild-type Salmonella strain 14028s was grown overnight (18.5 h), and then diluted in EG minimal media to a density of about 10^5 CFU/mL. […] Each test tube was incubated at 37° C. with shaking for 18 h and bacterial growth was evaluated. The MIC value was determined as the lowest concentration of compound that inhibited growth.

DksA [2] = target: T1, DksA; test: DksA-mediated repression of rpsM in vitro transcription (IVT, qRT-PCR); format: biochemical
Protocol: as §1
The compounds obtained in this screen were further analyzed for binding to the acidic pocket at the tip of DksA coiled-coil domain using the computer search program Dock. The analysis identified over 400 compounds. A panel of 40 compounds was selected from the top hits based on free energy binding scores. These compounds were investigated using the computer modeling program O. Two additional criteria were applied in order to narrow down the list of candidates: First, the compounds needed to fit deep into the pocket without any clashes; and second, the compounds bound to DksA should have minimal exposed moieties. The compounds selected were further refined according to energy minimization as calculated by the CNS program. 23 compounds were obtained from MolPort and they were tested for their ability to interfere with DksA in a high throughput screen that combined in vitro transcription with highly specific and quantitative qRT-PCR. Five of these compounds, including N-(3,4-dimethoxyphenyl)-1H-1,2,4-triazole-3-carboxamide (1), prevented DksA-mediated repression of rpsM in vitro transcription to some degree. […] Without intending to be limited to any particular theory, the effect that 1 has on DksA-dependent rpsM or hisG gene transcription is potentially due to differences in promoter activity.
as §2

T1 sequence (P0A1G5 whole entry): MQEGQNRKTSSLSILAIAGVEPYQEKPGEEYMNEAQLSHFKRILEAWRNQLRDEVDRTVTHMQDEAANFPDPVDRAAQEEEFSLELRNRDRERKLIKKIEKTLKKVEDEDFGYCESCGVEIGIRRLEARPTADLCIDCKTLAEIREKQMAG

| Structure (SMILES) | Compound Solubility, 1 μM (Compound solubility) | Compound Solubility, 10 μM (Compound solubility) | Compound Solubility, 100 μM (Compound solubility) | Compound Solubility, 1 mM (Compound solubility) | Compound Solubility, 10 mM (Compound solubility) | Compound Solubility, 16 mg/ml (Compound solubility) | In vitro transcription assay result, 0.1 μM (DksA [1]) | In vitro transcription assay result, 1 μM (DksA [1]) | IVT (DksA [1]) [µM] | Growth in EG at concentration tested 1 μg/ml (Salmonella strain 14028s) | Growth in EG at concentration tested 2 μg/ml (Salmonella strain 14028s) | Growth in EG at concentration tested 4 μg/ml (Salmonella strain 14028s) | Growth in EG at concentration tested 8 μg/ml (Salmonella strain 14028s) | MIC (Salmonella strain 14028s) [µg/mL] | IC50 (DksA [2]) [nM] | Growth in EG at concentration tested 16 μg/ml (Salmonella strain 14028s) | Growth in EG at concentration tested 32 μg/ml (Salmonella strain 14028s) |
| --- | --- | --- | --- | --- | --- | --- | --- | --- | --- | --- | --- | --- | --- | --- | --- | --- | --- |
| O=C(NCCCc1ccccc1)c1nc[nH]n1 [Compound 15, N-(3-phenylpropyl)-1H-1,2,4-triazole-3-carboxamide] | water | water | water | water | water | DMSO | no induction | no induction | 0.1 | + | + | + | + | 16 (≈ 69.5 µM) | 51 |  |  |
| O=C(NCCc1ccccc1)c1nc[nH]n1 [Compound 20, N-phenethyl-1H-1,2,4-triazole-3-carboxamide] | water | water | water | water | water | DMSO | no induction | no induction | 0.1 | + | + | + |  | 8 (≈ 37 µM) | 90 |  |  |
| O=C(Nc1cc(Cl)cc(Cl)c1)c1nc[nH]n1 [Compound 14, N-(3,5-dichlorophenyl)-1H-1,2,4-triazole-3-carboxamide] | water | water | water | DMSO | DMSO | DMSO | no induction | no induction | 0.1 | + | + | + |  | 8 (≈ 31.1 µM) | 71 |  |  |
| O=C(NCc1cccc(OC(F)(F)F)c1)c1nc[nH]n1 [Compound 9, N-(3-(trifluoromethoxy)benzyl)-1H-1,2,4-triazole-3-carboxamide] | water | water | water | water | DMSO | DMSO | no induction | Repression | 0.1 | + | + | + | + |  |  | + | + |
| C[C@@H](NC(=O)c1nc[nH]n1)c1ccccc1 [Compound 17, (R)-N-(1-phenylethyl)-1H-1,2,4-triazole-3-carboxamide] | water | water | water | water | water | DMSO | no induction | no induction | 0.1 | + | + | + | + |  |  | + | + |
| COc1ccc([C@@H](C)NC(=O)c2nc[nH]n2)cc1 [Compound 22, (R)-N-(1-(4-methoxyphenyl)ethyl)-1H-1,2,4-triazole-3-carboxamide] | water | water | water | water | water | DMSO | no induction | no induction | 0.1 | + | + | + | + |  |  | + | + |
| CCCCNC(=O)c1nc[nH]n1 [Compound 12, N-butyl-1H-1,2,4-triazole-3-carboxamide] | water | water | water | water | water | DMSO | no induction | no induction | 0.1 | + | + | + |  | 8 (≈ 47.6 µM) | 73 |  |  |
| O=C(Nc1ccc(C(F)(F)F)cc1)c1nc[nH]n1 [Compound 11, N-(4-(trifluoromethyl)phenyl)-1H-1,2,4-triazole-3-carboxamide] | water | water | water | DMSO | DMSO | DMSO | good repression | good repression | 0.1 | + | + | + | + |  |  | + | + |
| O=C(NCCCCc1ccccc1)c1nc[nH]n1 [Compound 16, N-(4-phenylbutyl)-1H-1,2,4-triazole-3-carboxamide] | water | water | water | water | DMSO | DMSO | no induction | good repression | 0.1 | + | + | + |  | 16 (≈ 65.5 µM) | 91 |  |  |
| O=C(NCCc1c[nH]c2ccccc12)c1nc[nH]n1 [Compound 19, N-(2-(1H-indol-3-yl)ethyl)-1H-1,2,4-triazole-3-carboxamide] | water | water | water | water | water | DMSO | no induction | no induction | 0.1 | + | + | + | + | 16 (≈ 62.7 µM) | 75 |  |  |
